Earlier results as cited in patent publication US9474524B2, “Packaged antimicrobial medical device having improved shelf life and method of preparing same” (Ethicon, Inc., priority 2002, dated 2016).

Tested on: S. aureus
Conditions: suitable growth medium; Bhargava, H. et al, American Journal of Infection Control, June 1996

Which “minimum inhibitory concentration (MIC) against S. aureus” value does the source give for `Oc1cc(Cl)ccc1Oc1ccc(Cl)cc1Cl` [2,4,4′-trichloro-2′-hydroxydiphenyl ether] here?
The value was 0.01 ppm.
